Legend:
Cytotoxicity, XTT test = settings: human
HIV Strain AD8 = assay: HIV-1 inhibition assay, strain NL(AD8), TZM-bl cells, CPRG readout; format: cell-based
HIV Strain NL4-3 = assay: HIV-1 inhibition assay, strain NL4-3, TZM-bl cells, CPRG readout; format: cell-based
Protocol: The human TZM-bl indicator cell line (obtained from the NIH AIDS reagents program, cat. Nr 8129, www.aidsreagent.org) was maintained at 37° C. and 5% CO2 in Dulbecco's modified Eagle's medium (DMEM) medium containing 10% fetal bovine serum, 50 μg/ml penicillin, and 50 μg/ml streptomycin. The HIV-1 laboratory strains NL (AD8) (NIH AIDS reagents program, cat. Nr, 11346) and NL4.3 (NIH AIDS reagents program, cat. Nr. 114) were titrated as previously reported by Tiberi et al (2014). Briefly, serial 5-fold dilutions of each virus were made in quadruplicate wells in 96-well culture plates, in a total volume of 100 μl of growth medium (DMEM), for a total of 8 dilution steps. Freshly trypsinized cells (20,000 cells in 100 μl of growth medium containing 75 μg/mL DEAE-dextran) were added to each well, and the plates were incubated at 37° C. in a humidified 5% CO2-95% air environment. After 48 h of incubation, the medium was removed and viral infection was quantified using a β-galactosidase (CPRG) assay (Roche). Twenty thousand TZM-bl cells/well were seeded in 96-well plates in complete DMEM supplemented with 30 μg/ml DEAE-dextran (Sigma-Aldrich). Three hundred times the 50% tissue culture infective dose (TCID50)/ml of each strain was pretreated for 1 h at 37° C. with six serial dilutions (10000 nM, 2000 nM, 400 nM, 80 nM, 16 nM, 3.2 nM) and then added to the cells. Vehicle (0.1% dimethyl sulfoxide [DMSO])-treated cells served as a negative control. […] After 2 days, viral infection was quantified using a CPRG assay (Roche cat nr 11379119103). The inhibitory curves were fitted by nonlinear regression, allowing for the calculation of the 50% effective concentration (EC50) using the Prism software. To evaluate the cell toxicity of the compounds, the metabolic XTT [2,3-bis-(2-methoxy-4-nitro-5-sulfophenyl)-2H-tetrazolium-5-carboxanilide] test (Sigma-Aldrich) was performed according to the manufacturer's instructions.

in vitro [1] = settings: dog
HSV-2 = HSV-2 plaque reduction assay on Vero cells; format: cell-based, Herpes 2 virus (HSV-2); settings: for SI selectivity index: HSV-2, CC50 divided by EC50; for EC90 / EC50: Human alphaherpesvirus 2, Vero, HSV-2 infected cells; for EC90: 90% effective concentration; for EC50: compound mixed with virus 1 hour at 37° C.
in vitro [2] = settings: African green monkey
ZIKAV = assay: ZIKA virus plaque reduction assay on Vero cells; format: cell-based, Zika virus (PRVABC59); settings: for SI selectivity index: ZIKAV, CC50 divided by EC50; for EC50 / EC90: Zika virus, Vero, ZIKAV infected cells
H1N1 = H1N1 inhibition assay on MDCK cells; format: cell-based, Influenza virus H1N1; settings: for SI selectivity index: H1N1, CC50 divided by EC50; for EC50 / EC90: Influenza A virus, MDCK, H1N1 infected cells; for EC50: read-out: EC50; for EC90: read-out: EC90
Protocol: MDCK cells were pre-plated in 96-well plates. The following day, concentrations of compounds ranging from 50 μM to 0.0001 μM in DMSO were mixed with H1N1 (MOI 0.05 pfu/cell) and incubated for 1 hour at 37° C. The mixtures were subsequently added to the cells for 1 h at 37° C., after a washout, cells were overlaid with MEM for 16 h at 37° C. Cells were then fixed and subjected to specific immunostaining using a Flu A monoclonal antibody (Merck 5001) in order to visualize infected cells. EC50 were calculated by comparing numbers of infected cells in treated and untreated wells. The effective concentration producing 50% reduction in plaque formation (EC50) was determined using Prism software. The selectivity index (SI) was calculated by dividing the CC50 by the EC50 value.

DENV-2 = assay: DENV plaque reduction assay on Huh-7 cells; format: cell-based, Dengue virus; settings: for SI selectivity index: DENV-2, CC50 divided by EC50; for EC50: Dengue virus, DENV2, Huh-7, DENV-2 infected cells
Protocol: The effect of compounds on DENV infection was evaluated by plaque reduction assay. Huh-7 cells were pre-plated 24 h in advance in 24-well plates at a density of 10^5 cells. Concentrations of compounds ranging from 50 μM to 0.0001 μM in DMSO were mixed with DENV-2 (MOI 0.01 pfu/cell) and incubated for 1 hour at 37° C. The mixtures were subsequently added to the cells, which were then incubated at 37° C. for 2 h. The virus inoculum was then removed and the cells washed and overlaid with a medium containing 1.2% methylcellulose (Sigma). After further incubation at 37° C. for 72 h cells were fixed and stained with 0.1% crystal violet in 20% ethanol and viral plaques counted. The effective concentration producing 50% reduction in plaque formation (EC50) were determined using Prism software by comparing drug-treated wells with wells treated with medium and DMSO. The selectivity index (SI) was calculated by dividing the CC50 by the EC50 value.

[3] = Cell viability (MTS) assay, Huh-7 cells; format: cell-based; settings: human, conditions of the DENV-2 assay (Table 6)
Protocol: Cell viability was measured using the MITS [3-(4,5-dimethylthiazol-2-yl)-5-(3 carboxy methoxy phenyl)-2-(4-sulfophenyl)-2H-tetrazolium] assay. Cell cultures were seeded in 96-well plates and were incubated with different concentrations of compounds of the invention in triplicate under the same experimental conditions described for the antiviral assays. Cell viability was determined using the CellTiter 96 Proliferation Assay Kit (Promega, Madison, WI, USA) according to the manufacturer's instructions. Absorbances were measured using a Microplate Reader (Model 680, BIORAD) at 490 nm. The effect on cell viability at different concentrations of the compound was expressed as a percentage, by comparing absorbances of treated cells with those of cells incubated with culture medium and equal volumes of vehicle. The 50% cytotoxic concentrations (CC50) and 95% confidence intervals (CIs) were determined using Prism software (Graph-Pad Software, San Diego, CA).

[4] = Human immunodeficiency virus 1, NL43, virus pretreated 1 h at 37° C. with compound
[5] = CC50, conditions of the HSV-2 assay (Table 2)
[6] = CC50, conditions of the ZIKAV assay (Table 3)
[7] = virus pretreated 1 h at 37° C. with compound

`O=C(O)c1ccc(-c2ccc(/C=C3\SC(=S)N(Cc4ccc(Cl)cc4)C3=O)[nH]2)cc1O` [Compound 7b, (Z)-4-(5-((3-(4-chlorobenzyl)-4-oxo-2-thioxothiazolidin-5-ylidene)methyl)-1H-pyrrol-2-yl)-2-hydroxybenzoic Acid] gave a CC50 (Cytotoxicity, XTT test; TZM-bl cells) of over 20 µM and an EC50 (HIV Strain AD8; Human immunodeficiency virus 1, virus pretreated 1 h at 37° C. with compound) of 0.532 µM.

In the case of `O=C1NC(=S)N(Cc2ccccc2)C(=O)/C1=C\c1ccc(-c2ccc(C(=O)O)c(O)c2)[nH]1` [Compound 15a, (Z)-4-(5-((1-benzyl-4,6-dioxo-2-thioxotetrahydropyrimidin-5(2H)-ylidene)methyl)-1H-pyrrol-2-yl)-2-hydroxybenzoic Acid], the CC50 (Cytotoxicity, XTT test) is reported as over 20 µM and the EC50 (HIV Strain NL4-3; [4]) is reported as 0.217 µM.

For `O=C1NC(=S)N(CCc2ccccc2)C(=O)/C1=C/c1ccc(-c2ccc(-c3nnn[nH]3)cc2)[nH]1` [Compound 15c, (Z)-5-((5-(4-(1H-tetrazol-5-yl)phenyl)-1H-pyrrol-2-yl)methylene)-dihydro-3-henethyl-2-thioxopyrimidine-4,6(1H,5H)-dione], the CC50 (in vitro [1]) was over 300 µM, the SI selectivity index (HSV-2) was over 1435 and the EC90 (HSV-2) was 0.618 µM. For the same compound, the EC50 (HSV-2) was 0.209 µM, the CC50 (in vitro [2]; [5]) was over 300 µM and the CC50 (in vitro [2]; [6]) was over 300 µM. It also gave an SI selectivity index (ZIKAV) of over 12000, an EC50 (ZIKAV) of 0.0258 µM and an EC90 (ZIKAV) of 0.365 µM. The SI selectivity index (H1N1) was over 379, the EC50 (H1N1) was 0.793 µM and the EC90 (H1N1) was 1.76 µM. It also gave an SI selectivity index (DENV-2) of 20.6, an EC50 (DENV-2) of 3.4 µM and a CC50 [3] of 70 µM.

For `N#Cc1ccc(-c2ccc(/C=C3\C(=O)NC(=S)N(CCc4ccccc4)C3=O)[nH]2)cc1` [Compound 15d, 4-(5-((Z)-(tetrahydro-4,6-dioxo-3-phenethyl-2-thioxopyrimidin-5(6H)-lidene)methyl)-1H-pyrrol-2-yl)benzonitrile], the CC50 (in vitro [1]) was over 300 µM, the SI selectivity index (HSV-2) was over 8.7 and the EC90 (HSV-2) was 88.2 µM. The EC50 (HSV-2) was 34.5 µM, the CC50 (in vitro [2]; [5]) was over 300 µM and the CC50 (in vitro [2]; [6]) was over 300 µM. The SI selectivity index (ZIKAV) was over 272.7, the EC50 (ZIKAV) was 1.11 µM and the EC90 (ZIKAV) was 26.6 µM. For the same compound, the SI selectivity index (H1N1) was over 12, the EC50 (H1N1) was 25 µM and the EC90 (H1N1) was 372 µM.

`O=C1NC(=S)N(CCc2ccc(O)cc2)C(=O)/C1=C\c1ccc(-c2ccc(C(=O)O)c(O)c2)[nH]1` [Compound 15f, (Z)-2-hydroxy-4-(5-((1-(4-hydroxyphenethyl)-4,6-dioxo-2-thioxotetrahydropyrimidin-5(2H)-ylidene)methyl)-1H-pyrrol-2-yl)benzoic Acid] gave an SI selectivity index (DENV-2) of 3.6, an EC50 (DENV-2) of 7.8 µM and a CC50 [3] of 28 µM.

Compound `O=C1NC(=S)N(Cc2ccccn2)C(=O)/C1=C\c1ccc(-c2ccc(-c3nnn[nH]3)cc2)[nH]1` [Compound 15p, (Z)-5-((5-(4-(1H-tetrazol-5-yl)phenyl)-1H-pyrrol-2-yl)methylene)-1-(pyridin-2-ylmethyl)-2-thioxodihydropyrimidine-4,6(1H,5H)-dione] has an SI selectivity index (DENV-2) of 7.3, an EC50 (DENV-2) of 12.2 µM and a CC50 [3] of 89 µM.

Compound `O=C1NC(=S)NC(=O)C1=Cc1ccc(-c2cc(C(F)(F)F)ccc2Cl)[nH]1` [Compound 17a, 5-((5-(2-chloro-5-(trifluoromethyl)phenyl)-1H-pyrrol-2-yl)methylene)-2-thioxodihydropyrimidine-4,6(1H,5H)-dione] has a CC50 (Cytotoxicity, XTT test) of over 20 µM.

Work on `O=C1NC(=S)NC(=O)C1=Cc1ccc(-c2ccc(C(=O)O)c(O)c2)[nH]1` [Compound 17b, 4-(5-((4,6-dioxo-2-thioxotetrahydropyrimidin-5(2H)-ylidene)methyl)-1H-pyrrol-2-yl)-2-hydroxybenzoic Acid] yielded a CC50 (Cytotoxicity, XTT test) of over 20 µM, an SI selectivity index (HSV-2) of over 429.8 and an EC90 (HSV-2) of 7.47 µM. It also gave an EC50 (HSV-2) of 0.698 µM, a CC50 (in vitro [2]; [5]) of over 300 µM and an EC50 (HIV Strain NL4-3; [4]) of 0.16 µM.

With `O=C(O)c1ccc(-c2ccc(CC3C(=O)NC(=S)N(CCc4ccccc4)C3=O)[nH]2)cc1O` (stereo not drawn) [Compound 18, 4-(5-((hexahydro-4,6-dioxo-1-phenethyl-2-thioxopyrimidin-5-yl)methyl)-1H-pyrrol-2-yl)-2-hydroxybenzoic Acid] the CC50 (in vitro [1]) was over 300 µM, the SI selectivity index (HSV-2) was over 417.2 and the EC90 (HSV-2) was 0.128 µM. The EC50 (HSV-2) was 0.712 µM, the CC50 (in vitro [2]; [5]) was over 300 µM and the CC50 (in vitro [2]; [6]) was over 300 µM. For the same compound, the SI selectivity index (ZIKAV) was over 849.8, the EC50 (ZIKAV) was 0.0353 µM and the EC90 (ZIKAV) was 0.308 µM. It also gave an SI selectivity index (H1N1) of over 238, an EC50 (H1N1) of 1.26 µM and an EC90 (H1N1) of 14.9 µM.

For `Cc1nnc(C(=O)NC(C)(C)c2nc(C(=O)NCc3ccc(F)cc3)c(O)c(=O)n2C)o1` [Ral, raltegravir, reference compound], the CC50 (Cytotoxicity, XTT test) was over 20 µM and the EC50 (HIV Strain NL4-3; [4]) was 0.021 µM.

maraviroc [reference compound] showed an EC50 (HIV Strain AD8; [7]) of 0.0367 µM and an EC50 (HIV Strain NL4-3; [7]) of over 20 µM.
